Laboratory results taken from patent publication US10988523B2, “Modified lipidated Relaxin B chain peptides and their therapeutic use” (Sanofi, priority 2018, dated 2021).
*1 amine or outer side, *2 acyl side, *3 side chain or, on linkers, in order; H or OH if unused. Where a SMILES comes first, the peptide text is derived from it. Side-chain parts run from the residue outwards. [ ]: non-standard residue; d: D form. The star is where a group is joined. PEG24 = NCCOCCOCCOCCOCCOCCOCCOCCOCCOCCOCCOCCOCCOCCOCCOCCOCCOCCOCCOCCOCCOCCOCCOCCOCCC(=O)O; PEG12 = NCCOCCOCCOCCOCCOCCOCCOCCOCCOCCOCCOCCOCCC(=O)O; γGlu = O=C(O)[C@H](CCC(=O)[*:2])N[*:1]; Stearoyl = CCCCCCCCCCCCCCCCCC(=O)*; Palmitoyl = CCCCCCCCCCCCCCCC(=O)*; αMeK = C[C@](N)(CCCCN)C(=O)O; αMeS = C[C@](N)(CO)C(=O)O; Nle = CCCC[C@H](N)C(=O)O; AEEA = NCCOCCOCC(=O)O; Aib = CC(C)(N)C(=O)O

Biological target: T1, RXFP1 (Homo sapiens, UniProt Q9HBX9)
T1 construct: OVCAR5 cells expressing endogenous RXFP1; endogenous in cells; host or cells: OVCAR5 cells
T1 sequence (Q9HBX9 1-757): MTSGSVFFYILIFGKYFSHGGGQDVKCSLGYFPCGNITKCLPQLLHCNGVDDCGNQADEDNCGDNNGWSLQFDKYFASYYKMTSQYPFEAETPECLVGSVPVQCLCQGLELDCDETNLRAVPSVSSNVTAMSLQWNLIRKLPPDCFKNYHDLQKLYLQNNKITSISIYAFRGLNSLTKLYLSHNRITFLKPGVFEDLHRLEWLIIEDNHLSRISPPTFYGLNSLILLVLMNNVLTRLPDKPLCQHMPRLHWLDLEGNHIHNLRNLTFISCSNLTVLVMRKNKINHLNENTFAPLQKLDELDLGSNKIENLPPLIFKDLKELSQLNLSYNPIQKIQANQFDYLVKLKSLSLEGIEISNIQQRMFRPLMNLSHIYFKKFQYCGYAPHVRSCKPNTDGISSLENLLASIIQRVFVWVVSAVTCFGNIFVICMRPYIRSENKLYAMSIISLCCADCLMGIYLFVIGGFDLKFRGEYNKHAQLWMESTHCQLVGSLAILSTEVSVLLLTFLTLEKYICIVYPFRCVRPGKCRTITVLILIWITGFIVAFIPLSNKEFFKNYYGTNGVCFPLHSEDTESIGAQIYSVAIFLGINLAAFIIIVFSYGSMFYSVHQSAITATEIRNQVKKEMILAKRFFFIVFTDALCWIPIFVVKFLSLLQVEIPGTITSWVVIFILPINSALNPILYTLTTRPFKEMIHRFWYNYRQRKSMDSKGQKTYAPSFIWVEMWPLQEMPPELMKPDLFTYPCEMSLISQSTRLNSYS
Experiment: OVCAR5 cAMP assay (HTRF), RXFP1 agonist activity
Format: cell-based
Details: for Emax: OVCAR-5, maximal cAMP relative to H2-relaxin maximum (100%), read-out: EMax, OVCAR 5 cells (cAMP); for EC50: OVCAR5 cells, cAMP HTRF, read-out: EC50 (nM), OVCAR 5 cells (cAMP)
Procedure, shortened: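 cAMP accumulation readout: after 1 mM IBMX for 40 min, endogenous-RXFP1 OVCAR5 cells got rising peptide concentrations without FCS, 30 min, 37° C, then lysis with HTRF cAMP reagents. Nonlinear regression gave EC50; Emax expressed relative to H2-relaxin maximum, same occasion.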

| SMILES | Emax [%] | EC50 [nM] |
| --- | --- | --- |
| CCCCCCCCCCCCCCCCCC(=O)N[C@@H](CCC(=O)N[C@@H](CCC(=O)N[C@@H](CCC(=O)NCCCC[C@H](NC(=O)CCOCCOCCOCCOCCOCCOCCOCCOCCOCCOCCOCCOCCNC(=O)[C@H](CCCCN)NC(=O)[C@H](CCCNC(=N)N)NC(=O)C(C)(C)NC(=O)[C@H](CO)NC(=O)[C@H](Cc1c[nH]c2ccccc12)NC(=O)[C@@H](NC(=O)[C@H](CO)NC(=O)[C@H](CCSC)NC(=O)CNC(=O)[C@H](CCC(=O)O)NC(=O)C(C)(C)NC(=O)C(C)(C)NC(=O)[C@@H](NC(=O)[C@H](CCCCNC(C)=O)NC(=O)[C@H](C)NC(=O)[C@H](CCCNC(=N)N)NC(=O)[C@@H](NC(=O)[C@H](CCCCN)NC(=O)[C@H](CCC(=O)O)NC(=O)[C@H](CCCNC(=N)N)NC(=O)CNC(=O)[C@H](CCC(=O)O)NC(=O)[C@H](CC(C)C)NC(C)=O)C(C)C)[C@@H](C)CC)[C@@H](C)O)C(N)=O)C(=O)O)C(=O)O)C(=O)O [compound 35] (Ac-LEGREKVRAK(Ac)I[Aib][Aib]EGMSTWS[Aib]RK[PEG12]K([γGlu-γGlu-γGlu-Stearoyl])-NH2) | 95 |  |
| CCCCCCCCCCCCCCCCCC(=O)N[C@@H](CCC(=O)N[C@@H](CCC(=O)N[C@@H](CCC(=O)NCCCC[C@H](NC(=O)CCOCCOCCOCCOCCOCCOCCOCCOCCOCCOCCOCCOCCNC(=O)[C@H](CCCCNC(C)=O)NC(=O)[C@H](CCCCN)NC(=O)[C@H](CCCNC(=N)N)NC(=O)C(C)(C)NC(=O)[C@H](CO)NC(=O)[C@H](Cc1c[nH]c2ccccc12)NC(=O)[C@@H](NC(=O)[C@H](CO)NC(=O)[C@H](CCCC)NC(=O)CNC(=O)[C@H](CCC(=O)O)NC(=O)C(C)(C)NC(=O)C(C)(C)NC(=O)[C@@H](NC(=O)[C@H](CCCCNC(C)=O)NC(=O)C(C)(C)NC(=O)[C@H](CCCNC(=N)N)NC(=O)[C@@H](NC(=O)[C@H](CCCCN)NC(=O)[C@H](CCC(=O)O)NC(=O)[C@H](CCCNC(=N)N)NC(=O)CNC(=O)[C@H](CCC(=O)O)NC(=O)[C@H](CC(C)C)NC(C)=O)C(C)C)[C@@H](C)CC)[C@@H](C)O)C(N)=O)C(=O)O)C(=O)O)C(=O)O [compound 36] (Ac-LEGREKVR[Aib]K(Ac)I[Aib][Aib]EG[Nle]STWS[Aib]RKK(Ac)[PEG12]K([γGlu-γGlu-γGlu-Stearoyl])-NH2) | 84 |  |
| CCCCCCCCCCCCCCCCCC(=O)N[C@@H](CCC(=O)N[C@@H](CCC(=O)N[C@@H](CCC(=O)NCCCC[C@H](NC(=O)CCOCCOCCOCCOCCOCCOCCOCCOCCOCCOCCOCCOCCNC(=O)[C@H](CCCCNC(C)=O)NC(=O)[C@H](CCCCN)NC(=O)[C@H](CCCNC(=N)N)NC(=O)C(C)(C)NC(=O)[C@](C)(CO)NC(=O)[C@H](Cc1c[nH]c2ccccc12)NC(=O)[C@@H](NC(=O)[C@H](CO)NC(=O)[C@H](CCCC)NC(=O)CNC(=O)[C@H](CCC(=O)O)NC(=O)C(C)(C)NC(=O)C(C)(C)NC(=O)[C@@H](NC(=O)[C@H](CCCCNC(C)=O)NC(=O)[C@H](C)NC(=O)[C@H](CCCNC(=N)N)NC(=O)[C@@H](NC(=O)[C@H](CCCCN)NC(=O)[C@H](CCC(=O)O)NC(=O)[C@H](CCCNC(=N)N)NC(=O)CNC(=O)[C@H](CCC(=O)O)NC(=O)[C@H](CC(C)C)NC(C)=O)C(C)C)[C@@H](C)CC)[C@@H](C)O)C(N)=O)C(=O)O)C(=O)O)C(=O)O [compound 41] (Ac-LEGREKVRAK(Ac)I[Aib][Aib]EG[Nle]STW[αMeS][Aib]RKK(Ac)[PEG12]K([γGlu-γGlu-γGlu-Stearoyl])-NH2) | 87 | 0.09 |
| CCCCCCCCCCCCCCCC(=O)N[C@@H](CCC(=O)N[C@@H](CCC(=O)N[C@@H](CCC(=O)N[C@@H](CCC(=O)NCCCC[C@H](NC(=O)CCOCCOCCOCCOCCOCCOCCOCCOCCOCCOCCOCCOCCNC(=O)[C@H](CCCCNC(C)=O)NC(=O)[C@H](CCCCN)NC(=O)[C@H](CCCNC(=N)N)NC(=O)[C@](C)(CCCCN)NC(=O)[C@H](CO)NC(=O)[C@H](Cc1c[nH]c2ccccc12)NC(=O)[C@@H](NC(=O)[C@H](CO)NC(=O)[C@H](CCCC)NC(=O)CNC(=O)[C@H](CCC(=O)O)NC(=O)C(C)(C)NC(=O)C(C)(C)NC(=O)[C@@H](NC(=O)[C@H](CCCCNC(C)=O)NC(=O)[C@H](C)NC(=O)[C@H](CCCNC(=N)N)NC(=O)[C@@H](NC(=O)[C@H](CCCCN)NC(=O)[C@H](CCC(=O)O)NC(=O)[C@H](CCCNC(=N)N)NC(=O)CNC(=O)[C@H](CCC(=O)O)NC(=O)[C@H](CC(C)C)NC(C)=O)C(C)C)[C@@H](C)CC)[C@@H](C)O)C(N)=O)C(=O)O)C(=O)O)C(=O)O)C(=O)O [compound 43] (Ac-LEGREKVRAK(Ac)I[Aib][Aib]EG[Nle]STWS[αMeK]RKK(Ac)[PEG12]K([γGlu-γGlu-γGlu-γGlu-Palmitoyl])-NH2) | 106 | 0.14 |
| CCCCCCCCCCCCCCCC(=O)N[C@@H](CCC(=O)N[C@@H](CCC(=O)N[C@@H](CCC(=O)NCCOCCOCC(=O)NCCOCCOCC(=O)NCCOCCOCC(=O)NCCCC[C@H](NC(=O)[C@H](CCCCNC(C)=O)NC(=O)[C@H](CCCCN)NC(=O)[C@H](CCCNC(=N)N)NC(=O)C(C)(C)NC(=O)[C@H](CO)NC(=O)[C@H](Cc1ccc(O)cc1)NC(=O)[C@@H](NC(=O)[C@H](CO)NC(=O)[C@H](CCC(N)=O)NC(=O)CNC(=O)[C@H](CCC(=O)O)NC(=O)C(C)(C)NC(=O)C(C)(C)NC(=O)[C@@H](NC(=O)[C@H](CCCCNC(C)=O)NC(=O)[C@H](C)NC(=O)[C@H](CCCNC(=N)N)NC(=O)[C@@H](NC(=O)[C@H](CCCCN)NC(=O)[C@H](CCC(=O)O)NC(=O)[C@H](CCCNC(=N)N)NC(=O)CNC(=O)[C@H](CCC(=O)O)NC(=O)[C@H](CC(C)C)NC(C)=O)C(C)C)[C@@H](C)CC)[C@@H](C)O)C(N)=O)C(=O)O)C(=O)O)C(=O)O [compound 44] (Ac-LEGREKVRAK(Ac)I[Aib][Aib]EGQSTYS[Aib]RKK(Ac)K([AEEA-AEEA-AEEA-γGlu-γGlu-γGlu-Palmitoyl])-NH2) | 75 |  |
| CCCCCCCCCCCCCCCCCC(=O)N[C@@H](CCC(=O)N[C@@H](CCC(=O)N[C@@H](CCC(=O)NCCCC[C@H](NC(=O)CCOCCOCCOCCOCCOCCOCCOCCOCCOCCOCCOCCOCCNC(=O)[C@H](CCCCNC(C)=O)NC(=O)[C@H](CCCCN)NC(=O)[C@H](CCCNC(=N)N)NC(=O)C(C)(C)NC(=O)[C@H](CO)NC(=O)[C@H](Cc1ccc(O)cc1)NC(=O)[C@@H](NC(=O)[C@H](CO)NC(=O)[C@H](CCCC)NC(=O)CNC(=O)[C@H](CCC(=O)O)NC(=O)C(C)(C)NC(=O)C(C)(C)NC(=O)[C@@H](NC(=O)[C@H](CCCCNC(C)=O)NC(=O)[C@H](C)NC(=O)[C@H](CCCNC(=N)N)NC(=O)[C@@H](NC(=O)[C@H](CCCCN)NC(=O)[C@H](CCC(=O)O)NC(=O)[C@H](CCCNC(=N)N)NC(=O)CNC(=O)[C@H](CCC(=O)O)NC(=O)[C@H](CC(C)C)NC(C)=O)C(C)C)[C@@H](C)CC)[C@@H](C)O)C(N)=O)C(=O)O)C(=O)O)C(=O)O [compound 46] (Ac-LEGREKVRAK(Ac)I[Aib][Aib]EG[Nle]STYS[Aib]RKK(Ac)[PEG12]K([γGlu-γGlu-γGlu-Stearoyl])-NH2) | 79 | 0.61 |
| CCCCCCCCCCCCCCCC(=O)N[C@@H](CCC(=O)N[C@@H](CCC(=O)N[C@@H](CCC(=O)NCCCC[C@H](NC(=O)CCOCCOCCOCCOCCOCCOCCOCCOCCOCCOCCOCCOCCOCCOCCOCCOCCOCCOCCOCCOCCOCCOCCOCCOCCNC(=O)[C@H](CCCCN)NC(=O)[C@H](CCCNC(=N)N)NC(=O)C(C)(C)NC(=O)[C@H](CO)NC(=O)[C@H](Cc1c[nH]c2ccccc12)NC(=O)[C@@H](NC(=O)[C@H](CO)NC(=O)[C@H](CCSC)NC(=O)CNC(=O)[C@H](CCC(=O)O)NC(=O)C(C)(C)NC(=O)C(C)(C)NC(=O)[C@@H](NC(=O)[C@H](CCC(N)=O)NC(=O)[C@H](C)NC(=O)[C@H](CCCNC(=N)N)NC(=O)[C@@H](NC(=O)[C@H](CCCCN)NC(=O)[C@H](CCC(=O)O)NC(=O)[C@H](CCCNC(=N)N)NC(=O)CNC(=O)[C@H](CCC(=O)O)NC(=O)[C@H](CC(C)C)NC(C)=O)C(C)C)[C@@H](C)CC)[C@@H](C)O)C(N)=O)C(=O)O)C(=O)O)C(=O)O [compound 47] (Ac-LEGREKVRAQI[Aib][Aib]EGMSTWS[Aib]RK[PEG24]K([γGlu-γGlu-γGlu-Palmitoyl])-NH2) | 100 |  |
